What is called pIC50 is −log10 of the IC50, conventionally taken in molar units.

pIC50: −log10 of the molar value.

In this test the target is T1, Poly [ADP-ribose] polymerase tankyrase-1 (Homo sapiens, UniProt O95271).
T1 sequence (O95271 whole entry): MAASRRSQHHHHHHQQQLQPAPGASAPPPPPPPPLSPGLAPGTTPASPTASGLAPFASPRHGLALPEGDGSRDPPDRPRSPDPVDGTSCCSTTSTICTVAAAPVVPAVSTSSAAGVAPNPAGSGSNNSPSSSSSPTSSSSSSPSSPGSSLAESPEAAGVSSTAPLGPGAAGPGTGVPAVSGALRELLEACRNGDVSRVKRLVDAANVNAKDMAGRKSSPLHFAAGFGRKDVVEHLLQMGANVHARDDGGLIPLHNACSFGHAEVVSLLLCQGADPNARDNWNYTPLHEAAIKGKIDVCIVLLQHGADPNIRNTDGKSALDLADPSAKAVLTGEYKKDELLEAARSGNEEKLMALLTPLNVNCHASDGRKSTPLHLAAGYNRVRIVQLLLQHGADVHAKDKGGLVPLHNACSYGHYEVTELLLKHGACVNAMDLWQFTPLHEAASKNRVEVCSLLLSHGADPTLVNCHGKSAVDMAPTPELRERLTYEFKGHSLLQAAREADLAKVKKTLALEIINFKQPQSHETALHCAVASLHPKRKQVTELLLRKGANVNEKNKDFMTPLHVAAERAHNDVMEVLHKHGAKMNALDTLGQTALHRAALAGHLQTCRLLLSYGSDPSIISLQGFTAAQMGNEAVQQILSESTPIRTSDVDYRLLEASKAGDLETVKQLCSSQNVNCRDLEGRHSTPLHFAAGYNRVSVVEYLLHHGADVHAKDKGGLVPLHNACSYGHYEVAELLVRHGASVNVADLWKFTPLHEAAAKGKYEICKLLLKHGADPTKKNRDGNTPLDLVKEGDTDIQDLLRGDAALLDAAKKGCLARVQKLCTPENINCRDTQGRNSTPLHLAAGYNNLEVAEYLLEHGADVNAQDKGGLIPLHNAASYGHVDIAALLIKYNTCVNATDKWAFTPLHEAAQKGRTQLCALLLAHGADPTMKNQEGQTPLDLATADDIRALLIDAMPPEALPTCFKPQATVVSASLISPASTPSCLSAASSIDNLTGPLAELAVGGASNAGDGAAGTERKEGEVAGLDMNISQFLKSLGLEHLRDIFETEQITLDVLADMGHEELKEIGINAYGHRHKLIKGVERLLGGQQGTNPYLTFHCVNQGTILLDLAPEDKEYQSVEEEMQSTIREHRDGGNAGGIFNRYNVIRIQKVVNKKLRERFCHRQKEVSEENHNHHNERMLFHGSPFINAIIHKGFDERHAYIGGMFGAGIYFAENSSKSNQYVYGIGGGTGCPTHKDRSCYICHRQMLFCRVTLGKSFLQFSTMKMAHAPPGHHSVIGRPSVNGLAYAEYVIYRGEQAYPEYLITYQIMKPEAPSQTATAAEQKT
In words: Tankyrase Biochemical Assays: The tankyrase 1 biochemical activity of the compounds was assayed in the following assay buffer (50 mM MOPS pH7.5, 100 mM NaCl, […] MgCl2, 0.01% Tween-20, 0.05% BSA, and 1 mM DTT) as follows: […] of 6×HIS-tankyrase 1 (1091-1325) was incubated in the presence of compound (DMSO […] final) in a Perkin Elmer 384 well Proxiplate Plus™ (cat. no. 6008289) with 400 n.
`CC1(C)OC(=O)N(c2ccc(-c3cc(-c4ncco4)c[nH]c3=O)cc2)[C@H]1c1ccccc1`: the negative logarithm of the IC50 (pIC50) is 6.78.

As for `CC1(C)OC(=O)N([C@H]2CC[C@H](NC(=O)c3csc(-c4ccccc4)n3)CC2)[C@H]1c1ccccc1`, the negative-log IC50 (pIC50) was 8.29.

Turning to `CC1(C)OC(=O)N([C@H]2CC[C@H](NC(=O)c3ccnc(-c4ccccc4)n3)CC2)[C@H]1c1ccccc1`, the negative-log IC50 (pIC50) is 7.94.

For the origin of these results see ChEMBL document CHEMBL3886724, “Oxazolidinone compounds and derivatives thereof” (2016).
